Assay results as given in publication PMC7692337, “Masked Phenolic-Selenium Conjugates: Potent and Selective Antiproliferative Agents Overcoming P-gp Resistance” (Pharmaceuticals, 2020).
Where two headings read alike, the source gives them in different places.

Columns and labels:
[1] = Free radical scavenging (DPPH method); details: 30 min incubation, absorbance at 515 nm; for EC50: read-out: EC50 antiradical activity (DPPH)
Description: (§1) In vitro antioxidant properties of key unprotected phenolic derivatives were analyzed using two different methodologies: free radical scavenging capacity, using the DPPH method (2,2-diphenyl-1-picrylhydrazyl), a HAT (hydrogen atom transfer) procedure, widely-used for both natural and synthetic derivatives, and also the capacity for scavenging H2O2, one of the most common ROS in degenerative diseases, including cancer.
DPPH is a commercially-available stable free radical commonly used for in vitro testing of radical scavenging properties of antioxidants.
Reported methodology was used with minor modifications. To a 60 µM methanolic DPPH solution (1.17 mL), the antioxidant solution (5–7 different solutions, 30 µL) or solvent (control, 30 µL) were added. After 30 min. of incubation in the dark, absorbance was measured at 515 nm, and EC50 values were calculated.

[2] = H2O2 scavenging (phenol red / horseradish peroxidase); details: At 50 µM
Description: as §1
Herein, following Bahorun’s methodology, in vitro levels of H2O2 were measured in an indirect fashion, by registering the H2O2-mediated oxidation of phenol red in the presence of horseradish peroxidase, to give a chromophore with a maximum absorption at 610 nm. Accordingly, in the presence of an antioxidant agent, there is an inverse correlation between the observed absorbance, and the scavenging properties. Table 2 depicts the H2O2-scavenging properties of compounds prepared herein, and tested at a final 50 µM concentration.
Reported methodology was used with minor modifications.

[3] = tested on: A549 (non-small cell lung); experiment: Antiproliferative activity, NCI protocol; assay type: cell-based, human
Description: (§2) Organochalcogen derivatives prepared herein were evaluated in vitro as potential antiproliferative agents, using a panel of six human tumour cell lines: A549 (non-small cell lung), HBL-100 (breast), HeLa (cervix), SW1573 (non-small cell lung), as drug sensitive lines, T-47D (breast) and WiDr (colon) as drug resistant lines. In addition to precursors 2, 6, 7, 13, 14, 17, 19, ebselen and cisplatin (CDDP) were used as reference drugs. […] In both cases, the NCI protocol, with minor modifications, was followed; selected data, including the selectivity index (S.I.) can be found in Table 3 and full data in Supporting Information (Table S1).
(§3) The in vitro antiproliferative activity was assayed using minor modifications of the protocol of the National Cancer Institute (NCI) of the United States against the six human solid tumor cell and the non-tumor cell lines tested.

HBL-100 (breast) = experiment: Antiproliferative activity, NCI protocol; assay type: cell-based, human
Description: as §2, §3

HeLa (cervix) = experiment: Antiproliferative activity, NCI protocol; assay type: cell-based, human
Description: as §2, §3

[4] = tested on: SW1573 (non-small cell lung); experiment: Antiproliferative activity, NCI protocol; assay type: cell-based, human; details: Homo sapiens
Description: as §2, §3

T-47D (breast) = experiment: Antiproliferative activity, NCI protocol; assay type: cell-based, human; details: Homo sapiens, T47D, read-out: GI50 T-47D (Breast)
Description: as §2, §3

WiDr (colon) = experiment: Antiproliferative activity, NCI protocol; assay type: cell-based, human; details: Homo sapiens, WiDr, read-out: GI50 WiDr (Colon)
Description: as §2, §3

BJ-hTert (fibroblasts) = experiment: Antiproliferative activity on non-tumour cells, NCI protocol; assay type: cell-based, human; details: Homo sapiens, Fibroblast, read-out: GI50 BJ-hTert (Fibroblasts)
Description: as §2, §3

SW1573 = experiment: P-glycoprotein assay, wild type line; assay type: cell-based; details: Homo sapiens, 48 h exposure
Description: (§4) This assay allows prediction of whether a certain chemotherapeutic agent could develop chemoresistance when behaving as a P-gp substrate, one of the most common efllux-pumps used for the extrusion of cell xenobiotics. For that purpose, a cell line-based assay was used, in particular the lung cancer cell line in its wild type (SW1573), and its variant overexpressing P-gp (Sw1573/Pgp). Moreover, compounds were tested in the presence and in the absence of verapamil, which is known to inhibit P-gp. Chemotherapeutic agents paclitaxel (PTX) and vinblastine (VB) are used herein as reference compounds. In this assay, the resistance factor (Rf) for a certain compound is defined as the ratio of GI50 in the cell line overexpressing P-gp and the wild one (Table 4), high values of Rf denoting that the compound behaves as a P-gp substrate, and thus, chemoresistance through this mechanism will probably take place.

[5] = P-glycoprotein assay, line overexpressing P-gp; assay type: cell-based, human; details: human, 48 h exposure
Description: as §4

SW1573/Pgp = experiment: P-glycoprotein assay, line overexpressing P-gp; assay type: cell-based, human; details: ratio between GI50 values in SW1573/PGP and SW1573 cells
Description: as §4

[6] = tested on: six human tumour cell lines (A549, HBL-100, HeLa, SW1573, T-47D, WiDr); experiment: Antiproliferative activity, panel of six human tumour cell lines; assay type: cell-based
Description: as §2, §3

c1cc2c(cc1C[Se][Se]Cc1ccc3c(c1)OCO3)OCO2 [Compound 39, Bis[(3’, 4’-methylenedioxyphenyl)methyl]diselenide]
EC50 antiradical activity (DPPH) [1]: complete impairment of activity | EC50 [1]: > 250000 nM | % Scavenging of H2O2 [2]: complete loss of ROS scavenging properties and --- | GI50 ([3]; Homo sapiens, A549; read-out: GI50 A549 (Lung)): 1200 ± 300 nM | GI50 (HBL-100 (breast); Homo sapiens, HBL-100; read-out: GI50 HBL-100 (Breast)): 2900 ± 600 nM | GI50 (HeLa (cervix); Homo sapiens, HeLa; read-out: GI50 HeLa (Cervix)): 2400 ± 1400 nM | GI50 ([4]; SW1573, Table S1, read-out: GI50 SW1573 (Lung)): 3200 ± 900 nM | GI50 (T-47D (breast); drug resistant line): 2900 ± 400 nM | GI50 (WiDr (colon); drug resistant line): 1600 ± 300 nM | GI50 (BJ-hTert (fibroblasts); non-tumour cell line): 3900 ± 1000 nM | GI50 (SW1573; with verapamil, read-out: GI50 SW153 w Verapamil): 2500 ± 100 nM | GI50 (SW1573; without verapamil, read-out: GI50 SW1573 w/o Verapamil): 3000 ± 500 nM | GI50 at 48 h ([5]; with verapamil (concentration not stated), with verapamil, read-out: GI50 SW1573/PGP w Verapamil): 5100 ± 400 nM | GI50 at 48 h ([5]; without verapamil, read-out: GI50 SW1573/PGP w/o Verapamil): 18000 ± 100 nM | Rf w Verapamil (SW1573/Pgp; with verapamil): 2.0 | Rf w/o Verapamil (SW1573/Pgp; without verapamil): 6.0 | GI50 over the tumour cell lines (range, bound or words) ([6]; summary over the tested tumour cell lines, highest tested concentration 100 µM): low micromolar‒submicromolar activities

O=C(CCC[Se][Se]CCCC(=O)NCCc1ccc2c(c1)OCO2)NCCc1ccc2c(c1)OCO2 [Compound 46, 4,4’-Diselenobis{N-[2′’-(3′’’,4′’’-Methylenedioxyphenyl)ethyl]butanamide}]
EC50 antiradical activity (DPPH) [1]: complete impairment of activity | EC50 [1]: > 250000 nM | % Scavenging of H2O2 [2]: complete loss of ROS scavenging properties and --- | GI50 ([3]; Homo sapiens, A549, read-out: GI50 A549 (Lung)): 270 ± 20 nM | GI50 (HBL-100 (breast); Homo sapiens, HBL-100, read-out: GI50 HBL-100 (Breast)): 250 ± 20 nM | GI50 (HeLa (cervix); Homo sapiens, HeLa, read-out: GI50 HeLa (Cervix)): 120 ± 10 nM | GI50 ([4]; SW1573, read-out: GI50 SW1573 (Lung)): 300 ± 30 nM | GI50 (T-47D (breast)): 190 ± 40 nM | GI50 (WiDr (colon)): 250 ± 60 nM | GI50 (BJ-hTert (fibroblasts)): 1000 ± 100 nM | fold improvement of potency against tumour cell lines compared to 16 ([6]; 46 (acetal) versus 16 (free catechol)): up to 30 fold | GI50 ([6]; Homo sapiens, read-out: GI50 over the tumour cell lines (range, bound or words)): 120 to 300 nM | fold increase in activity compared to CDDP ([6]; multidrug resistant cell lines (T-47D, WiDr)): ≤ 104 fold
